Patent US6630488B1, “Quinolizinones as integrin inhibitors” (Biochem Pharma, Inc., priority 1998, dated 2003)
Where a name gives a salt, the structure may show the parent alone. Read-outs that look alike come from different tables or passages of the source.

How the values were obtained:
[1] = molecular target: T1, placental αvβ3 (Homo sapiens, UniProt P05106+P06756); experiment: Fibrinogen binding to immobilized αvβ3
T1 construct: purified active GP IIb-IIIa (Calbiochem) or olacental αvβ3 at 0.5 μg/ml; from tissue; host or cells: placenta
T1 sequence (P06756 31-889 limits assumed): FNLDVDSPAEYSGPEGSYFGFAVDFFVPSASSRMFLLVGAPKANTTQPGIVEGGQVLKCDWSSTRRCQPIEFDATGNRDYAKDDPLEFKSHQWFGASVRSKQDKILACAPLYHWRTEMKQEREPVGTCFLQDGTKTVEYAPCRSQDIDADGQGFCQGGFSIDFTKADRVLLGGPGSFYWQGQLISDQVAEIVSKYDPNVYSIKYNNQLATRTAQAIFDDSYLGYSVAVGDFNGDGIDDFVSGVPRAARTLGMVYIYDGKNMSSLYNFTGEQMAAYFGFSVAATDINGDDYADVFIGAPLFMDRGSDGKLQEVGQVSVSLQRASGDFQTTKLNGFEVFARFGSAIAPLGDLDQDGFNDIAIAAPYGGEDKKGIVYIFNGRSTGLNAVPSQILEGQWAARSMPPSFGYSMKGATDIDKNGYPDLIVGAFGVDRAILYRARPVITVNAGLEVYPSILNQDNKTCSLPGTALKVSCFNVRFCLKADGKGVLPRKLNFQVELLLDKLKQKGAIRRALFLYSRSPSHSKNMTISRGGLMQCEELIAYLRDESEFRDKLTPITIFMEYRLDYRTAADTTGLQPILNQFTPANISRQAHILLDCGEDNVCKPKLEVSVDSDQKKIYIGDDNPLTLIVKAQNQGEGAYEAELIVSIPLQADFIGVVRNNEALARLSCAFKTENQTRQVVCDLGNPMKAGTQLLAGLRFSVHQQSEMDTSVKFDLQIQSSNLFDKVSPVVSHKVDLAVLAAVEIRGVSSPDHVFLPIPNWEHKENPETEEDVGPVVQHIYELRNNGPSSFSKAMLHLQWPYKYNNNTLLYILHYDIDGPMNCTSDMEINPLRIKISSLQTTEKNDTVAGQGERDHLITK
T1 sequence (P06756 891-1048 partner limits assumed): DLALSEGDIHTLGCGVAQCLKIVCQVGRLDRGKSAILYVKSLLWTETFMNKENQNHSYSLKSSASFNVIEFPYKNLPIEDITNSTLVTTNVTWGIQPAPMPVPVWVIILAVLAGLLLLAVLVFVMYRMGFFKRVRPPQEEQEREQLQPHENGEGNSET
T1 sequence (P05106 27-788): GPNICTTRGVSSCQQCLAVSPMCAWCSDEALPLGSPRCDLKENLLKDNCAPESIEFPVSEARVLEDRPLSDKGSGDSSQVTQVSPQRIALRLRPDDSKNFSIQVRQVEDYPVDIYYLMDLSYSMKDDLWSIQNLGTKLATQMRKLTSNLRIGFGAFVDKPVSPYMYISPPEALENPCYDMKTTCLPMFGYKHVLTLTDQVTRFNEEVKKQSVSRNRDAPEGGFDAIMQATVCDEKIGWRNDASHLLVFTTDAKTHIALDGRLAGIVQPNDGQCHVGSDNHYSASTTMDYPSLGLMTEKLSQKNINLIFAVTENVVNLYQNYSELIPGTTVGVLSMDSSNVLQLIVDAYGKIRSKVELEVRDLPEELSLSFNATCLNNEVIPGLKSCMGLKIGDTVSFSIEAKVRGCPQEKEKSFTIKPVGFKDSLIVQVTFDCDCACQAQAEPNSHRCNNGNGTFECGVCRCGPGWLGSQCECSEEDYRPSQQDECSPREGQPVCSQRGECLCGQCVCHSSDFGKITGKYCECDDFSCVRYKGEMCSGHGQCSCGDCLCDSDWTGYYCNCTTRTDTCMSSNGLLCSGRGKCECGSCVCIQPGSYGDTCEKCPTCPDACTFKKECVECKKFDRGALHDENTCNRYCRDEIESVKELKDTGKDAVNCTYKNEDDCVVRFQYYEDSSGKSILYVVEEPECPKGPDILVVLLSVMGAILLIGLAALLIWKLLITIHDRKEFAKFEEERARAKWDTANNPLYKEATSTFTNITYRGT
Description: (§1) Nonbound fibrinogen was removed by five washes with binding buffer. Avidin conjugated to alkaline phosphatase (Sigma), diluted in binding buffer, was added and incubated for two hours at 37° C. The plates were washed five times with binding buffer, and after addition of the substrate PNPP (Pierce), the enzyme activity was measured by the absorbance at 405 nm.

[2] = Cell proliferation and cytotoxicity MTT assay, IAFp2; format: cell-based; conditions: IAFp2 skin fibroblasts, read-out: Cell proliferation and cytotoxicity IC50, IAFp2 Skin Fibroblast
Description: (§2) The wells of microtiter plates were seeded with 2000 cells/well (T24), 2500 cells/well (HT29), 5000 cells/well (HMVEC)or 2500 cells/well (IAFp2) in 100 μL, followed by an overnight culture for cell adhesion. […] Following culture for 72 hours, 3-(4,5-dimethyl-2-thiazolyl)-2,5-diphenyltetrazolium bromide (MTT; Sigma) at 2 mg/ml was added to each well (50 μL/well) and further incubated for 4 hours at 37° C. The medium was flicked out and 200 μL of a 1:1 solution of ethanol:acetone followed by 25 μL of glycine buffer (0.1 M glycine, 0.1M NaCl, pH 10.5) is added and the color measured by the absorbance at 570 nm.

[3] = molecular target: T2, α5β1 (Homo sapiens, UniProt P05556+P08648); experiment: Cell attachment assay, K562; format: cell-based; conditions: ligand fibronectin, read-out: Cell attachment IC50, α5β1, Fibro-nectin
T2 construct: Cell Line; K562 transfected αvβ3; HT29; K562; endogenous in cells; host or cells: K562
T2 sequence (P08648 42-894 limits assumed): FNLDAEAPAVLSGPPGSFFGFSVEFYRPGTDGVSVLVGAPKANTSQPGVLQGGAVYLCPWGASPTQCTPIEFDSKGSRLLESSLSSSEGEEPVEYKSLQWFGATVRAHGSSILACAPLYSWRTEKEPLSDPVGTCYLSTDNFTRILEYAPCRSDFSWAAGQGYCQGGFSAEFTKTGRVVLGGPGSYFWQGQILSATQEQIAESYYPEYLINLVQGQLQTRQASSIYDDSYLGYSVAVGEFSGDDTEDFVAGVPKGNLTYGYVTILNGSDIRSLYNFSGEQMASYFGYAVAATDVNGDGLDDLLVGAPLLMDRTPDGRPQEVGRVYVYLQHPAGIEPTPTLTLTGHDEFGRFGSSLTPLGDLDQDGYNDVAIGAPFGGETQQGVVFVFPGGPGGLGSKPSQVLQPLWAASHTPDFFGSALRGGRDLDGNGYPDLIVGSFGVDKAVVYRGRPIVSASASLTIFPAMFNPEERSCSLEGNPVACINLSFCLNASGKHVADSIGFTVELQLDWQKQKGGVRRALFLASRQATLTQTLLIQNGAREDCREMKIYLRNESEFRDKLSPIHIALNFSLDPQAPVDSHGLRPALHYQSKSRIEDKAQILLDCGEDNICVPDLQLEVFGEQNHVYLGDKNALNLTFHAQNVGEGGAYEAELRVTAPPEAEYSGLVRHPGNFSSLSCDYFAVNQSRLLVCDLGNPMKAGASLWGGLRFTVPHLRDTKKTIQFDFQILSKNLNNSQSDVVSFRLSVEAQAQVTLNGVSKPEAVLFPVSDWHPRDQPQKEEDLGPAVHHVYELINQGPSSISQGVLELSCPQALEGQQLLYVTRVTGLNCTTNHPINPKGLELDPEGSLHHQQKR
T2 sequence (P08648 895-1049 partner limits assumed): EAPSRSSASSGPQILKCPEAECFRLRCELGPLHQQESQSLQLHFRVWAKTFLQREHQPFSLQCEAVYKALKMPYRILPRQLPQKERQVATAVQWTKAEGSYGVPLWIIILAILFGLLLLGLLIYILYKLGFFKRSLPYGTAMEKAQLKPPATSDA
T2 sequence (P05556 21-798): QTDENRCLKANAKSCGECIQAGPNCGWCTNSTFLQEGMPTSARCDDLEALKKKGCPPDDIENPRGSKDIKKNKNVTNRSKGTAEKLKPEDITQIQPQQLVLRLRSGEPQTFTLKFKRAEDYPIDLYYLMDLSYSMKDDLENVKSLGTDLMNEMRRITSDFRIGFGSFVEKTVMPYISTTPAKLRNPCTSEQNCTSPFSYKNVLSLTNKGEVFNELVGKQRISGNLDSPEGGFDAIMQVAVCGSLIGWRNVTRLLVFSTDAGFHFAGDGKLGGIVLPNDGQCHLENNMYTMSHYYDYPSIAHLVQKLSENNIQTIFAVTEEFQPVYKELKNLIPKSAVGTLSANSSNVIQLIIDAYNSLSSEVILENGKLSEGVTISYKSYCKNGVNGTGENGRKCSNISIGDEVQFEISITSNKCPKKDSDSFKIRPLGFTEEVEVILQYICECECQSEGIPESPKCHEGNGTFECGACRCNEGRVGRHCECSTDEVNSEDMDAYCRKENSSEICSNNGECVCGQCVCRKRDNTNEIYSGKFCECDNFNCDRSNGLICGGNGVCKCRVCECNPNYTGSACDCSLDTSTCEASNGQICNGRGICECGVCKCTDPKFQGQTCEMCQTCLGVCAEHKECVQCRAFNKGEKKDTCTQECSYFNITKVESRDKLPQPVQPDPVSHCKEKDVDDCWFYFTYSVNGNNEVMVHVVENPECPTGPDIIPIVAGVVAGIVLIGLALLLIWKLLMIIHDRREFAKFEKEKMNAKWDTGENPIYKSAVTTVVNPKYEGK
Description: The wells of 96-well plates (Immunolon) were coated, by incubation overnight at 4° C., with 5 μg/ml of vitronectin or osteopontin, 10 μg/ml of fibronectin or 10 mg/ml BSA in PBS. The protein solution was flicked out and the wells were blocked with 10 mg/ml BSA (0.1 ml) for 1-2 hours at 37° C. Cells [HT29 (ATOC), HMVEC (Cell Systems), K562 or K562 transfected with αvβ3 (Blystone et al., 1994)] were loaded with a fluorescent marker, 5-chloromethylfluorescein diacetate (Molecular Probes, Eugene, Or) for 1 hour at 37° C., then incubated in fresh medium without the fluorescent marker for 1 hour.
(§3) Cells were lifted with trypsin-EDTA and washed two times with Hank's balanced salt solution (Sigma) supplemented with 1 mM MgCl2. Cells (75,000 cells/well) were added to coated plates in triplicate and allowed to attach at 37° C. for 1 hour in the presence or absence of specific antibodies at 5 μ/ml or increasing concentrations of compounds of interest (0.001-10 μM). Nonadherent cells were removed by gentle washing twice with PBS. The adherent cells were solubilized with 1% triton X-100 and detected using a fluorescence plate reader (Perkin Elmer).
The number of attached cells was calculated based upon starched curves for each cell line used in the experiment. Non-specific cell attachment (attachment to wells coated with BSA) was always less than 5%. The results presented are the average of triplicate samples and representative of several separate assays.

[4] = system: Chick Chorioallantoic Membrane (CAM) capillary formation; experiment: Chick chorioallantoic membrane (CAM) mesh assay; format: in vivo, chicken; conditions: Day 12, 24 hr treatment
Description: Fertilized white leghorn chicken eggs (SPAFAS Inc., Norwich, Conn.) were received at day 0 and incubated for 3 days at 37 C with constant humidity. On day 3, eggs were rinsed with 70% ethanol and opened into 100 mm^2 tissue culture coated Petri dishes under aseptic conditions. The embryos were then returned to a humidified 38 C incubator for 7-9 additional days.
Vitrogen (Collagen Biomaterials, Palo Alto, Calif.) at a final concentration of 0.73 mg/ml and Matrigel (Becton Dickinson, Bedford, Mass.) at a final concentration of 10 mg/ml was directly pipetted onto Nylon meshes with 250 μm^2 openings which were cut into 4 mm×4 mm squares and autoclaved. Polymerization of meshes were under aseptic conditions, on bacteriological Petri dishes. The polymerization conditions for each substrate were identical; after mixing with or without […] of VPF/VEGF165 (Peprotech, Rocky Hill, N.J.) and/or compounds of interest, 40 μl were pipetted onto each mesh in a bacteriological Petri dish.
The Petri dish was placed in a humidified 37 C incubator with 5% CO2 for 30 minutes to allow polymerization followed by an incubation at 4 C for 2 hours.
In a tissue culture enclosure, meshes were placed onto the periphery of the CAM of a day 12-14 embryo, excluding areas containing major vessels. The embryos were then returned to the humidified 38 C incubator with 3% CO2 for 24 to 48 additional hours.
Embryos were removed from the incubator and meshes were viewed under a dissecting microscope for gross evaluation. Injection of 400 μl FITC dextran, MW 2,000,000 (Sigma, St. Louis, Mo.) through glass microcapillary tubes by infusion into the umbilical vein was performed at a rate of 200 μl per minute. The FITC dextran was allowed to circulate for 5 minutes and 3.7% formaldehyde in PBS was applied directly on each mesh. The embryos were then incubated at 4 C for 5 minutes and the meshes were dissected off the CAM and fixed in 3.7% formaldehyde for 10 minutes to overnight.
After fixation, meshes were mounted on slides with 90% glycerol in PBS and visualized on an inverted fluorescence microscope. A Nikon Diaphot with a Sony DXC-151A camera attached to the side port was used for capture of images and analysis was with the NIH Image 1.61 software program. For each mesh, 5 random staggered images (approximately 600 μm each) were captured. The areas of high intensity were highlighted and measured. Results are expressed as ability to suppress capillary formation after subtraction from negative control. Values were calculated as i inhibition, considering 100% the capillary density achieved by VPF in the presence of vitrogen alone minus the background levels in the absence of VPF. Negative values indicate angiogenic stimulation above the VPF positive control.

[5] = molecular target: T3, αvβ3 (Homo sapiens, UniProt P05106+P06756); experiment: Cell attachment assay, K562 transfected with αvβ3; format: cell-based
T3 construct: expressed in transfected cells; host or cells: K562
T3 sequence (P06756 31-889 limits assumed): as the sequence (P06756 31-889 limits assumed) above
T3 sequence (P06756 891-1048 partner limits assumed): as the sequence (P06756 891-1048 partner limits assumed) above
T3 sequence (P05106 27-788): as the sequence (P05106 27-788) above
Description: (§4) The wells of 96-well plates (Immunolon) were coated, by incubation overnight at 4° C., with 5 μg/ml of vitronectin or osteopontin, 10 μg/ml of fibronectin or 10 mg/ml BSA in PBS. The protein solution was flicked out and the wells were blocked with 10 mg/ml BSA (0.1 ml) for 1-2 hours at 37° C.
as §3
(§5) The number of attached cells was calculated based upon starched curves for each cell line used in the experiment. […] The results presented are the average of triplicate samples and representative of several separate assays.

[6] = Cell proliferation and cytotoxicity MTT assay, T24; format: cell-based; conditions: human, T24 tumor cells
Description: as §2

[7] = Cell proliferation and cytotoxicity MTT assay, HMVEC; format: cell-based; conditions: human, HMVEC endothelial cells
Description: as §2

[8] = molecular target: T4, GP IIb-IIIa (αIIbβ3) (Homo sapiens, UniProt P05106+P08514); experiment: Fibrinogen binding to immobilized GP IIb-IIIa (αIIbβ3)
T4 construct: purchased Calbiochem
Description: as §1

[9] = Cell proliferation and cytotoxicity MTT assay, HT29; format: cell-based; conditions: human, HT29 tumor cells
Description: as §2

[10] = molecular target: T5, αvβ5 (Homo sapiens, UniProt P06756+P18084); experiment: Cell attachment assay, HT29; format: cell-based
T5 construct: Cells [HT29 (ATOC), HMVEC (Cell Systems), K562 or K562 transfected with αvβ3; endogenous in cells; host or cells: HT29
T5 sequence (P06756 31-889 limits assumed): as the sequence (P06756 31-889 limits assumed) above
T5 sequence (P06756 891-1048 partner limits assumed): as the sequence (P06756 891-1048 partner limits assumed) above
T5 sequence (P18084 24-799): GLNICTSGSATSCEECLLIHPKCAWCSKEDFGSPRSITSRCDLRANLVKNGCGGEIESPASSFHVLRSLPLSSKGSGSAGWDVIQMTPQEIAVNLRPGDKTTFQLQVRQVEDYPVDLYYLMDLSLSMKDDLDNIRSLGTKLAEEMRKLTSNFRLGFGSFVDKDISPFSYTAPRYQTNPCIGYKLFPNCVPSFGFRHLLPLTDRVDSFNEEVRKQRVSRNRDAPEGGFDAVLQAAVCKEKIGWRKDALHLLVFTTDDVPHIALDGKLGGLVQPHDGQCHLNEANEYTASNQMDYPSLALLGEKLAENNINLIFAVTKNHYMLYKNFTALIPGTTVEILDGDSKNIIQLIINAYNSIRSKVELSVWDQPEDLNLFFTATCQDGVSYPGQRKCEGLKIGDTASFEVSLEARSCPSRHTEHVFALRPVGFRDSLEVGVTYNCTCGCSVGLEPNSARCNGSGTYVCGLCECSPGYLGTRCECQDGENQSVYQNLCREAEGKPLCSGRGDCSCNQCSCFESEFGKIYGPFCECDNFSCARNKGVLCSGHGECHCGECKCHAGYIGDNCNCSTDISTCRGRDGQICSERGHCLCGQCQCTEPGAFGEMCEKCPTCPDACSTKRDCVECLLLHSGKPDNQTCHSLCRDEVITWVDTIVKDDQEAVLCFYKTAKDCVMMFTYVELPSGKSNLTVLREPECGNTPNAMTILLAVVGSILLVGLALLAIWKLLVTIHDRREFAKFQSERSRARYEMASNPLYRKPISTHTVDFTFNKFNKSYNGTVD
Description: as §4, §3, §5

[11] = Cell attachment IC50, αvβ3, Osteo-Pontin, ligand osteopontin
[12] = Cell attachment IC50, αvβ3, Vitro-nectin, ligand vitronectin
[13] = biotinylated-fibrinogen 10 nM, immobilized placental αvβ3, read-out: IC50 values for the fibrinogen binding assay αvβ3
[14] = HT29, ligand vitronectin, read-out: Cell attachment IC50, αvβ5, Vitro-Nectin
[15] = ligand osteopontin, read-out: Cell attachment IC50, αvβ3, Osteo-Pontin
[16] = biotinylated-fibrinogen 10 nM, immobilized GP IIb-IIIa, read-out: IC50 values for the fibrinogen binding assay αIIbβ3

IC50 [3] [µM]	IC50 [10] [µM]	IC50 [1, 13] [nM]	IC50 [10, 14] [µM]	IC50 [5, 15] [nM]	IC50 [8, 16] [nM]	SMILES	IC50 [1] [nM]	IC50 at 72 h [2] [µM]	CAM inhibition of capillary formation ([4]; 3 μg/mesh, +VPF) [%]	CAM inhibition of capillary formation ([4]; 3 μg/mesh, −VPF) [%]	CAM inhibition of capillary formation ([4]; 17 μg/mesh, +VPF) [%]	CAM inhibition of capillary formation ([4]; 17 μg/mesh, −VPF) [%]	CAM inhibition of capillary formation ([4]; 33 μg/mesh, +VPF) [%]	CAM inhibition of capillary formation ([4]; 33 μg/mesh, −VPF) [%]	IC50 [5, 11] [nM]	IC50 [5, 12] [nM]	IC50 at 72 h [6] [µM]	IC50 at 72 h [7] [µM]	IC50 [8] [nM]	IC50 at 72 h [9] [µM]
> 10	> 10	–	–	–	–	N=C(N)NCCOc1ccc2cc(C(=O)NC[C@H](NS(=O)(=O)c3ccccc3)C(=O)O)cc(=O)n2c1 [Compound XX, (S)-2-Benzenesulfonylamino-3-{[7-(2-guanidino-ethoxy)-4-oxo-4H-quinolizine-2-carbonyl]-amino}-propionic Acid Hydrochloride]	100	21	–	–	–	–	–	–	2300 ± 2000	> 10000	> 100	35 ± 22	7.9	100
> 10	–	4.2	3.2 ± 1.6	160 ± 10	94	N=C(N)NCC1CCc2cc(C(=O)NCC(NS(=O)(=O)c3ccccc3)C(=O)O)cc(=O)n2C1 [Compound XXIX, (2S, 7R) and (2S, 7S)-2-Benzenesulfonylamino-3-[(7-guanidinomethyl-4-oxo-6,7,8,9-tetrahydro-4H-quinolizine-2-carbonyl)-amino]-propionic Acid]	–	23	10	4	12	8	14	13	–	–	> 100	1 ± 0.2	–	13
> 10	–	15	5.8 ± 3.6	430 ± 180	250	Cl.N=C(N)NCc1ccc2cc(C(=O)NC[C@H](NS(=O)(=O)c3ccccc3)C(=O)O)cc(=O)n2c1 [Compound XXVII, (S)-2-Benzenesulfonylamino-3-[(7-guanidinomethyl-4-oxo-4H-quinolizine-2-carbonyl)-amino]-propionic Acid Hydrochloride]	–	> 100	9	5	12	11	19	16	–	–	> 100	1.2 ± 0.4	–	> 100

SMILES	IC50 [3] [µM]	IC50 [10] [µM]	IC50 [1, 13] [nM]	IC50 [10, 14] [µM]	IC50 [5, 15] [nM]	IC50 [8, 16] [nM]	IC50 [1] [nM]	IC50 at 72 h [2] [µM]	CAM inhibition of capillary formation ([4]; 3 μg/mesh, +VPF) [%]	CAM inhibition of capillary formation ([4]; 3 μg/mesh, −VPF) [%]	CAM inhibition of capillary formation ([4]; 17 μg/mesh, +VPF) [%]	CAM inhibition of capillary formation ([4]; 17 μg/mesh, −VPF) [%]	CAM inhibition of capillary formation ([4]; 33 μg/mesh, +VPF) [%]	CAM inhibition of capillary formation ([4]; 33 μg/mesh, −VPF) [%]	IC50 [5, 11] [nM]	IC50 [5, 12] [nM]	IC50 at 72 h [6] [µM]	IC50 at 72 h [7] [µM]	IC50 [8] [nM]	IC50 at 72 h [9] [µM]
N=C(N)NCCCOc1ccc2cc(C(=O)NC[C@H](NS(=O)(=O)c3ccccc3)C(=O)O)cc(=O)n2c1 [Compound XV, (S)-2-Benzenesulfonylamino-3-{[7-(3-guanidino-propoxy)-4-oxo-4H-quinolizine-2-carbonyl]-amino}-propionic Acid Hydrochloride]	> 10	–	–	–	–	–	15	17	7	2	7	9	10	8	500 ± 200	2500 ± 1500	> 100	16 ± 4	5.3	> 100
